Experimental data reported in US20150209384A1, “ORAL PREPARATION FOR PROMOTING EXPRESSION OF TGF-BETA, ORAL PREPARATION FOR INHIBITING PRODUCTION OF PAIN-MEDIATING SUBSTANCE, AND ORAL PREPARATION FOR PREVENTING EDEMA” (KEWPIE CORPORATION, priority 2012, published 2015).

What was measured:
[1] = tested on: rat carrageenan-induced inflammatory pain model; test: Rat carrageenan-induced inflammatory pain model: paw edema, paw volume, exudate amount; assay type: in vivo; settings: for exudate amount of the paw: FIG. 3; for paw edema: vs negative control (distilled water), hyaluronic acid 200 mg/kg/day by drinking for 4 weeks, ibuprofen 100 mg/kg oral 1 hour before induction, FIG. 1
Description: (§1) Rats (Wistar (SPF), male, four-weeks-old at the time of purchase, purchased from Japan SLC, Inc.) were acclimatized and fed for 7 days, and then grouped based on their body weights on the day before administration. The above-mentioned test solution was administered by drinking ad libitum for 4 weeks.
It should be noted that the 1% λ-carrageenan solution was stirred with a stirrer until immediately before use (induction). After that, a paw volume was measured using a paw volume measuring apparatus. In addition, blood was collected from the rat pain model under isoflurane anesthesia. After that, an exudate was collected from the hind paw, and the measurement of PGE2 and bradykinin in the exudate was performed.
The tuberal region of the pisiform bone outside the rat right hind paw was marked with marking ink so that volume measurement was uniform. Distilled water was charged up to a target water surface of a measuring chamber of the paw volume measuring apparatus. A measurer restrained the rat, and while lightly pressing the femoral region of the paw to be measured, put the paw at a position at which the mark leveled off and reached the target water surface. Then, a paw volume was recorded using a foot switch connected to the apparatus. It should be noted that the measurement of the paw volume was performed three times for each animal individual, and a mean thereof was determined.
Regarding a measured value for the paw volume, an amount of change Δ mL was determined from the following calculation equation for each individual animal, and a group mean and its standard error (SE) were calculated.
Amount of change A mL=Value at the time of each measurement after carrageenan administration−Value before (0 hours after) carrageenan administration
(§2) A 15-mL centrifugation tube, which had been measured for its tare weight in advance, was prepared, and a container having a 2-mL pipette tip cut at the tip in the centrifugation tube was prepared. The induced paw of the animal after the end of the blood collection was amputated from 1 cm above the malleolus using bone scissors or the like, and measured for its weight. The skin at the plantar site of the rat was deeply incised using a scalpel to make 2 incisions in a length direction by 4 incisions in a width direction which is perpendicular to the length direction. This paw skin tissue was placed with the toe down into the above-mentioned container, and cooling centrifugation was performed using a centrifugation machine at 3,000 rpm for 15 minutes to collect an exudate. In addition, in a non-treated group, the collection was performed from the left and right hind paws. The mass of the collected exudate was measured using an electrobalance. To the exudate after the end of the mass measurement were added 100 μL of 20 mM aspirin-containing physiological saline and 250 μL of 20 unit/mL heparin-containing physiological saline, the resultant was centrifuged, and then the supernatant was used as an exudate sample. In addition, the exudate was dispensed into a tube. The exudate sample was frozen with liquid nitrogen and cryopreserved until use.

bradykinin = test: Measurement of bradykinin in paw exudate (EIA), rat carrageenan model; assay type: in vivo; settings: for total amount of bradykinin in exudate: vs negative control, FIG. 5
Description: as §1, with “weeks. After the administration by drinking for 4 weeks, the rats were selected and grouped so that there was no difference in body weight between groups at the time of carrageenan induction (see Table 1), and then the rats were each used for a pain model to be described later.” for “weeks.”
(§3) A rat pain model was produced by subcutaneously injecting 0.1 mL of a 1% A-carrageenan (manufactured by SIGMA) solution into the plantar surface of the rat hind paw with reference to methods of Ohuchi et al. (Kazuo Ohuchi, “Seibutsu Yakkagaku Jikken Koza (Biological pharmaceutical science experimental course) (Vol. 12) Inflammation and Allergy I-1”, Chapter 1, foreign matter-induced inflammation model: pp. 30-51) and Masahiro Noguchi et al. (Masahiro Noguchi, et al: Enzymologic and pharmacologic profile of loxoprofen sodium and its metabolites. Biol. Pharm. Bull. 2005.28.2075-2079). It should be noted that the 1% λ-carrageenan solution was stirred with a stirrer until immediately before use (induction). After that, a paw volume was measured using a paw volume measuring apparatus. In addition, blood was collected from the rat pain model under isoflurane anesthesia. After that, an exudate was collected from the hind paw, and the measurement of PGE2 and bradykinin in the exudate was performed.
as §2
The measurement of bradykinin in the exudate was performed using “Bradykinin, EIA Kit, High Sensitivity, Bachem Americans.” The operations were performed in conformity with the accompanying protocol of the kit.

PGE2 = test: Measurement of PGE2 in paw exudate (ELISA), rat carrageenan model; assay type: in vivo; settings: vs negative control; for total amount of PGE2 in exudate: FIG. 7; for concentration of PGE2 in exudate: FIG. 8
Description: as §1, with “weeks. After the administration by drinking for 4 weeks, the rats were selected and grouped so that there was no difference in body weight between groups at the time of carrageenan induction (see Table 1), and then the rats were each used for a pain model to be described later.” for “weeks.”
as §3, §2
The measurement of PGE2 (ELISA) in the exudate was performed using “Prostaglandin E2 Kit-Monoclonal, ACE.” The operations were performed in conformity with the accompanying protocol of the kit.

[2] = tested on: TGF-β1 mRNA in human colon adenocarcinoma-derived HT29 cells; test: TGF-β expression promoting action in HT29 cells (TGF-β1 mRNA, real-time PCR); assay type: cell-based; settings: hyaluronic acid 0.01 mg/ml, LPS 200 ng/mL added 1 hour later, 24 hours after addition of hyaluronic acid, control = 1, FIG. 11
Description: In order to confirm the TGF-β expression promoting action of hyaluronic acid in human colon adenocarcinoma-derived HT29 cells (purchased from DS Pharma Biomedical Co., Ltd.), the measurement of the production amount of TGF-β mRNA in the case of treating HT29 cells with hyaluronic acid was performed by the following method.
Hyaluronic acid was added to a culture supernatant, and 1 hour after that, a lipopolysaccharide (LPS) was added at a concentration of 200 ng/mL. 23 hours after that, mRNA of cells was collected, and the determination of TGF-β1 mRNA using real-time PCR equipment (Mx 3005, Agilent Technologies) was performed. First, cDNA was synthesized from mRNA by reverse transcription, and a PCR reaction was performed using the cDNA. That is, an amplification reaction involving repeating thermal denaturation (95° C., 10 seconds) and annealing (60° C., 20 seconds) 40 times was performed, and simultaneously, DNA amplification was measured by monitoring fluorescence from CybrGreen to be conjugated with DNA, and determination in the case of defining the mRNA amount of a control as 1 was performed. The human TGF-31 primers used were designed with the software Primer BLAST made available to the public by the National Center for Biotechnology Information (NCBI). Their sequences are 5′-[…]-3′ (Forward) and 5′-[…]-3′ (Reverse). […]

TGF-β1 = test: Measurement of TGF-β1 in plasma (ELISA), rat carrageenan model; assay type: in vivo; settings: 6 hours after carrageenan induction, FIG. 4
Description: as §1, with “weeks. After the administration by drinking for 4 weeks, the rats were selected and grouped so that there was no difference in body weight between groups at the time of carrageenan induction (see Table 1), and then the rats were each used for a pain model to be described later.” for “weeks.”
A rat pain model was produced by subcutaneously injecting 0.1 mL of a 1% A-carrageenan (manufactured by SIGMA) solution into the plantar surface of the rat hind paw with reference to methods of Ohuchi et al. (Kazuo Ohuchi, “Seibutsu Yakkagaku Jikken Koza (Biological pharmaceutical science experimental course) (Vol. 12) Inflammation and Allergy I-1”, Chapter 1, foreign matter-induced inflammation model: pp. 30-51) and Masahiro Noguchi et al. (Masahiro Noguchi, et al: Enzymologic and pharmacologic profile of loxoprofen sodium and its metabolites. Biol. Pharm. Bull. 2005.28.2075-2079). It should be noted that the 1% λ-carrageenan solution was stirred with a stirrer until immediately before use (induction). After that, a paw volume was measured using a paw volume measuring apparatus. […]

[3] = Measurement of concentration of hyaluronic acid in plasma; assay type: in vivo, rat
Description: as §1, with “weeks. After the administration by drinking for 4 weeks, the rats were selected and grouped so that there was no difference in body weight between groups at the time of carrageenan induction (see Table 1), and then the rats were each used for a pain model to be described later.” for “weeks.”
(§4) The rat pain model under anesthesia with isoflurane (manufactured by Mylan Pharmaceuticals, Inc.) was subjected to abdominal section, and blood was collected through the caudal vena cava of the abdomen. A 5-mL disposable injection syringe filled with heparin sodium (Wako Pure Chemical Industries, Ltd.) and a 22-G injection needle were used for the blood collection. Plasma was rapidly separated from the collected blood using a centrifuge, dispensed into a tube, and cryopreserved until use.
The measurement of the concentration of hyaluronic acid in plasma was performed using “Hyaluronan Assay Kit (Seikagaku Biobusiness Corporation).”
The concentrations of hyaluronic acid in plasma of the negative control (distilled water-administered group) and the test solution-administered group were measured. The concentrations of hyaluronic acid in plasma were measured before carrageenan induction and 6 hours and 8 hours after carrageenan induction.

IL-10 = test: Measurement of IL-10 in plasma, rat carrageenan model; assay type: in vivo; settings: oral hyaluronic acid 200 mg/kg/day 4 weeks
Description: as §1, with “weeks. After the administration by drinking for 4 weeks, the rats were selected and grouped so that there was no difference in body weight between groups at the time of carrageenan induction (see Table 1), and then the rats were each used for a pain model to be described later.” for “weeks.”
as §4
The measurement of IL-10 in plasma was performed using “Quantikine Rat IL-10 (R & D Systems, Inc.).” The operations were performed in conformity with the accompanying protocol of the kit.

[4] = 6 hours after carrageenan induction
[5] = 6 hours after carrageenan induction, vs negative control, hyaluronic acid 200 mg/kg/day 4 weeks, ibuprofen 100 mg/kg oral
[6] = 3 hours after carrageenan induction
[7] = 6 hours after carrageenan induction, vs negative control (distilled water), FIG. 6

| Compound | exudate amount of the paw ([1]; 3 hours after carrageenan induction, vs negative control, ibuprofen 100 mg/kg oral) | paw edema [1, 4] | exudate amount of the paw [1, 5] | total amount of bradykinin in exudate (bradykinin; [6]) | concentration of bradykinin in exudate (bradykinin; [7]) | total amount of bradykinin in exudate (bradykinin; [4]) | total amount of PGE2 in exudate (PGE2; [6]) | concentration of PGE2 in exudate (PGE2; [6]) | total amount of PGE2 in exudate (PGE2; [4]) | concentration of PGE2 in exudate (PGE2; [4]) | amount of TGF-β1 mRNA relative to control (no addition of hyaluronic acid) [2] [times] | paw volume ([1]; 6 hours after carrageenan induction, vs negative control, hyaluronic acid 200 mg/kg/day 4 weeks, ibuprofen 100 mg/kg oral, FIG. 2) | concentration of TGF-β in plasma compared to positive control (ibuprofen) (TGF-β1; same timing) | concentration of TGF-β in plasma (TGF-β1; hyaluronic acid 200 mg/kg/day 4 weeks) | concentration of bradykinin in exudate (bradykinin; 3 hours after carrageenan induction, vs distilled water group, FIG. 6) | concentration of bradykinin in exudate compared to positive control (ibuprofen) (bradykinin; 3 hours and 6 hours after carrageenan induction, FIG. 6) | concentration of hyaluronic acid in plasma ([3]; 6 hours after carrageenan induction, FIG. 9) | concentration of hyaluronic acid in plasma ([3]; 8 hours after carrageenan induction, FIG. 9) | concentration of hyaluronic acid in plasma ([3]; before carrageenan induction, after continuous ingestion for 4 weeks (200 mg/kg/day), FIG. 9 left panel) | increase in IL-10 in plasma (IL-10) |
| --- | --- | --- | --- | --- | --- | --- | --- | --- | --- | --- | --- | --- | --- | --- | --- | --- | --- | --- | --- | --- |
| CC(C)Cc1ccc(C(C)C(=O)O)cc1 (centres unmarked) [ibuprofen, reference compound] | significantly smaller than those in the negative control | milder than in the negative control | significantly smaller than those in the negative control | smaller than those in the negative control | significantly smaller concentration of bradykinin than that in the negative control | smaller than those in the negative control (statistically significant 6 hours after carrageenan induction) | smaller than those in the negative control | significantly smaller than those in the negative control | smaller than those in the negative control (statistically significant 6 hours after carrageenan induction) | significantly smaller than those in the negative control | – | – | – | – | – | – | – | – | – | – |
| hyaluronic acid [listing 1 of 2 here] | – | – | – | – | – | – | – | – | – | – | 2.14 | – | – | – | – | – | – | – | – | – |
| hyaluronic acid [listing 2 of 2 here] | – | milder than in the negative control | smaller than that in the negative control | – | significantly smaller than those in the distilled water group | significantly smaller than that in the negative control | – | – | significantly smaller than that in the negative control | significantly smaller than that in the negative control | – | significantly smaller than that in the negative control | higher than the concentration of TGF-β in the positive control | increased remarkably | significantly smaller than those in the distilled water group | lower than those in the positive control | almost no change | almost no change | did not cause any change | not observed |
